Test: Solubility in water and sesame oil

## Oc1ccc2ccccc2c1N=Nc1ccc(N=Nc2ccccc2)cc1 [Sudan III]
Sesame oil
  solubility in sesame oil: soluble
water
  solubility in water: very water insoluble

— patent US6424857B1, “Use of acousto-optical and sonoluminescene contrast agents” (Amersham Health AS, priority 1997, dated 2002)
